Assay results as given in patent US10071133B2, “Method for destroying exosomes, kit for destroying exosomes, and method for isolating exosomes derived from normal cells” (priority 2015, dated 2018).
Ends that are not written are not given here.

Key:
Type in all cases: biochemical
[1] = test system: exosome fraction B derived from human breast cancer cells versus exosome fraction derived from human mammary gland cells (MCF-10A, normal cells); experiment: Selectivity: miR-16 ratio, breast cancer exosomes versus mammary gland normal cell exosomes (Formula 1); conditions: for mir-16 ratio: Formula 1, cancer/normal (MCF-10A), 100 μM peptide, 37° C., 24 hours; for Selectivity: from miR-16 ratio versus Comparative Example 8, breast cancer vs MCF-10A exosomes
Description: (§1) A cell suspension of cell line MDA-MB-231-luc-D3H2LN derived from human breast cancer (=MM231-luc-D3H2LN, provided by the National Cancer Center Research Institute) was seeded in a dish containing RPMI 1640 medium (manufactured by Thermo Fisher Scientific Inc.) containing 10% fetal bovine serum. Subsequently, the cell line was grown at 37° C. under the condition that CO2 concentration was set to 5 volume % using a CO2 incubator, and then the medium was replaced with Advanced RPMI 1640 medium (manufactured by Thermo Fisher Scientific Inc.), followed by culturing for 48 hours, and therefore the culture solution containing exosomes was obtained. This culture solution was centrifuged at 2,000 G for 10 minutes to remove the precipitate, followed by centrifugation at 110,000 G for 70 minutes to precipitate the exosomes, and therefore an exosome fraction B was recovered. The recovered exosome fraction B was suspended in a phosphate buffered saline (PBS) and then stored at 4° C. Storage samples were lightly suspended with a vortex mixer (vibration mixer) before use.
A cell suspension of cell line MCF 10A derived from human mammary epithelial cells (provided by the National Cancer Center Research Institute) was seeded in a dish containing Mammary Epithelium Cell Basal Medium (manufactured by Lonza). Subsequently, the cell line was grown at 37° C. under the condition that CO2 concentration was set to 5 volume % using a CO2 incubator, and then the medium was replaced with a fresh medium, followed by culturing for 48 hours, and the culture solution containing exosomes was obtained. This culture solution was centrifuged at 2,000 G for 10 minutes to remove the precipitate, followed by centrifugation at 110,000 G for 70 minutes to precipitate the exosomes, and an exosome fraction was recovered. The recovered exosome fraction was suspended in a phosphate buffered saline (PBS) and then stored at 4° C. Storage samples were lightly suspended with a vortex mixer (vibration mixer) before use.
(§2) MicroRNA (miR-21 or miR-16) in the reaction solution was subjected to reverse transcription PCR using reverse transcription primers (manufactured by Thermo Fisher Scientific Inc., Taqman microRNA Assays, RT primers, and hsa-mir-21 or hsa-mir-16) and a reverse transcriptase (manufactured by Thermo Fisher Scientific Inc., Taqman microRNA RT kit).
(§3) The reverse transcription PCR solution obtained by the above described method was processed and by comparing the number of cycles on a calibration curve of microRNA using Taqman Assay primer (manufactured by Thermo Fisher Scientific Inc., Taqman microRNA Assays, Taqman Assay primer, and hsa-mir-21 or hsa-mir-16) and Real-Time PCR Master Mixes (manufactured by Thermo Fisher Scientific Inc., TaqMan Universal PCR Master Mix II, w/UNG) with StepOnePlus Real-Time PCR System, MiR-21 or miR-16 was quantified. The calibration curve of microRNA was created using synthetic miR-21 (manufactured by Sigma-Aldrich Co. LLC.) or synthetic miR-16 (manufactured by Sigma-Aldrich Co. LLC.).
(§4) 10 μL of the exosome fraction was prepared such that PBS contains 1×10^11 particles/mL of the exosome fraction B derived from human breast cancer cells, various antimicrobial peptides shown in the following Table 4 adjusted to 100 μM, and 0.4 U/μL of RNase inhibitor (manufactured by Toyobo Co., Ltd.), followed by incubation by being left to stand at 37° C. for 24 hours.
Thereafter, the eluted MicroRNA (miR-16) was purified and recovered from the incubated solution by the same method as the above described method for extraction from the incubated solution of Examples 10 and 11 above and Comparative Examples 6 and 7 above. […]

[2] = test system: exosome fraction B derived from human breast cancer cells (MDA-MB-231-luc-D3H2LN); experiment: Extraction of microRNA (miR-21) from exosomes derived from human breast cancer cells, real-time PCR; conditions: 100 μM peptide, 1×10^11 particles/mL exosomes, 0.4 U/μL RNase inhibitor, 37° C., 24 hours; without peptide 8×10^−14M
Description: as §1, §2, §3
as §4, with “Table 2” for “Table 4”
MicroRNA eluted into the solution was purified and recovered from the incubated solution of Example 10 above and Comparative Example 6 above by the following method.
First, 160 μL of PBS was added to the reaction solution, and then the solution was added to a centrifugal filter (manufactured by Millipore Corporation, Amicon Ultra 0.5 mL, 100K filter) and centrifuged at 14,000 G for 2 minutes. Subsequently, 100 μL of the centrifuged filtrate was recovered and introduced into a 1.5 mL tube. Next, 350 μL of RLT buffer (manufactured by QIAGEN, attached with RNeasy mini kit) and 675 μL of ethanol were added and mixed in the 1.5 mL tube. The obtained mixture was separated into two parts, and each of the separates was added onto a spin column (manufactured by QIAGEN, attached with RNeasy mini kit) followed by centrifugation at 8,000 G for 15 seconds, and the entire amount of the mixture was passed through the spin column. Thereafter, 500 μL of RPE buffer (manufactured by QIAGEN, attached with RNeasy mini kit) was added thereto and centrifuged at 8,000 G for 15 seconds. Furthermore, 500 μL of the RPE buffer was added to the spin column once more and centrifuged at 8,000 G for 15 seconds. Thereafter, the spin column was centrifuged at 14,000 G for 1 minute to remove the residual RPE buffer. Next, 30 μL of RNase free water (manufactured by QIAGEN, attached with RNeasy mini kit) was added to the spin column, left for 1 minute, and then centrifuged at 14,000 G for 1 minute, and the eluate obtained thereby was recovered. […]

[3] = test system: exosomes derived from cancer cells; experiment: Preliminary examination of destructive ability of anticancer peptides against exosomes derived from cancer cells
Excerpt: Specifically, the present inventors have come to realize the following knowledge.

[4] = test system: exosome derived from human prostate cancer cells (PC3ML); experiment: Extraction of microRNA (miR-21) from exosome derived from prostate cancer cells, real-time PCR; conditions: 100 μM peptide, 1×10^11 particles/mL PC3ML exosomes, 0.4 U/μL RNase inhibitor, 37° C., 24 hours; without peptide 3×10^−14M
Description: A cell suspension of cell line PC3ML derived from human prostate cancer cells (provided by the National Cancer Center Research Institute) was seeded in a dish containing RPMI 1640 medium (manufactured by Thermo Fisher Scientific Inc.) containing 10% fetal bovine serum. Subsequently, the cell line was grown at 37° C. under the condition that CO2 concentration was set to 5 volume % using a CO2 incubator, and then the medium was replaced with Advanced RPMI 1640 medium (manufactured by Thermo Fisher Scientific Inc.), followed by culturing for 48 hours, and the culture solution containing exosomes was obtained. This culture solution was centrifuged at 2,000 G for 10 minutes to remove the precipitate, followed by centrifugation at 110,000 G for 70 minutes to precipitate the exosomes, and therefore an exosome fraction was recovered. The recovered exosome fraction was suspended in a phosphate buffered saline (PBS) and then stored at 4° C. Storage samples were lightly suspended with a vortex mixer (vibration mixer) before use. […]
as §3, with “The calibration curve of microRNA was created using synthetic miR-21 (manufactured by Sigma-Aldrich Co. LLC.) or synthetic miR-16 (manufactured by Sigma-Aldrich Co. LLC.).” left out
The amount of microRNA (miR-21) contained in the recovered eluate was quantified by the above described real-time PCR method. […] In addition, the destructive activity of the antimicrobial peptide used was evaluated on the basis of the following criteria based on the quantitative result of the concentration of microRNA (miR-21) performed by the real-time PCR method. […]

[5] = test system: exosome fraction A prepared from the cell line MM231-luc-D3H2LN derived from human breast cancer cells; experiment: Destruction of exosomes in PBS, number of exosomes by nanoparticle analyzer (NanoSight LM10); conditions: 50 μM peptide, 1.36×10^10 particles/mL exosomes in PBS, 25° C., 48 hours
Excerpt: Storage samples were lightly suspended with a vortex mixer (vibration mixer) before use.

Molecule | mir-16 ratio [1] | Selectivity [1] | Destructive activity (concentration of microRNA miR-21 in eluate) [2] | further results
CC[C@H](C)[C@H](NC(=O)CN)C(=O)NCC(=O)N[C@@H](C)C(=O)N[C@H](C(=O)N[C@@H](CC(C)C)C(=O)N[C@@H](CCCCN)C(=O)N[C@H](C(=O)N[C@@H](CC(C)C)C(=O)N[C@H](C(=O)N[C@H](C(=O)NCC(=O)N[C@@H](CC(C)C)C(=O)N1CCC[C@H]1C(=O)N[C@@H](C)C(=O)N[C@@H](CC(C)C)C(=O)N[C@H](C(=O)N[C@@H](CO)C(=O)N[C@@H](Cc1c[nH]c2ccccc12)C(=O)N[C@H](C(=O)N[C@@H](CCCCN)C(=O)N[C@@H](CCCNC(=N)N)C(=O)N[C@@H](CCCCN)C(=O)N[C@@H](CCCNC(=N)N)C(=O)N[C@@H](CCC(N)=O)C(=O)N[C@@H](CCC(N)=O)C(N)=O)[C@@H](C)CC)[C@@H](C)CC)[C@@H](C)O)[C@@H](C)O)C(C)C)C(C)C [Melittin] | 42 | B (evaluated as “B” in a case where the calculated miR-16 value was higher than the miR-16 ratio of Comparative Example 8) | A (the concentration of microRNA is 50×10^−14M or more) | 
A6K: amino acid sequence AAAAAAK (Ac-AAAAAAK-NH2) |  |  | D (the concentration of microRNA is less than 10×10^−14M) | destructive ability against the exosomes derived from cancer cells [3]: no or a low level
Caerin 1.1 | 27 | B (evaluated as “B” in a case where the calculated miR-16 value was higher than the miR-16 ratio of Comparative Example 8) | A (the concentration of microRNA is 50×10^−14M or more) | 
Hepcidin TH2-3 |  |  | D (the concentration of microRNA is less than 10×10^−14M) | destructive ability against the exosomes derived from cancer cells [3]: no or a low level
K6L9 (LKLLKKLLKKLLKLL) |  |  | B (the concentration of microRNA is 10×10^−14M to 50×10^−14M) | Destructive activity (concentration of microRNA miR-21 in eluate) [4]: A (the concentration of microRNA is 10×10^−14M or more)
LL-37 | 18 | B (evaluated as “B” in a case where the calculated miR-16 value was higher than the miR-16 ratio of Comparative Example 8) | A (the concentration of microRNA is 50×10^−14M or more) | number of exosomes in the solution [5]: 1.09×10^9 particles/mL
Lactoferricin [Example 4] |  |  |  | number of exosomes in the solution [5]: 7.47×10^9 particles/mL
Maximin 1 | 22 | B (evaluated as “B” in a case where the calculated miR-16 value was higher than the miR-16 ratio of Comparative Example 8) | B (the concentration of microRNA is 10×10^−14M to 50×10^−14M) | 
Maximin 4 | 311 | B (evaluated as “B” in a case where the calculated miR-16 value was higher than the miR-16 ratio of Comparative Example 8) | B (the concentration of microRNA is 10×10^−14M to 50×10^−14M) | 
NRC-07 |  |  | B (the concentration of microRNA is 10×10^−14M to 50×10^−14M) | 
Nisin [Example 3] |  |  |  | number of exosomes in the solution [5]: 4.51×10^9 particles/mL
PR-39 (RRRPRPPYLPRPRPPPFFPPRLPPRIPPGFPPRFPPRFP) |  |  | D (the concentration of microRNA is less than 10×10^−14M) | destructive ability against the exosomes derived from cancer cells [3]: no or a low level
PTP7 |  |  | D (the concentration of microRNA is less than 10×10^−14M) | 
Pardaxin 4 |  |  | B (the concentration of microRNA is 10×10^−14M to 50×10^−14M) | 
Sesquin (KTCENLADTY) |  |  | D (the concentration of microRNA is less than 10×10^−14M) | 
Short α-helical peptides (2) (GIIKKIIKKIIKKIIKKI-NH2) |  |  | B (the concentration of microRNA is 10×10^−14M to 50×10^−14M) | 
TsAP-2 |  |  | B (the concentration of microRNA is 10×10^−14M to 50×10^−14M) | 
Tuftsin |  |  | B (the concentration of microRNA is 10×10^−14M to 50×10^−14M) | 
mCRAMP (GLLRKGGEKIGEKLKKIGQKIKNFFQKLVPQPEQ) | 9 | B (evaluated as “B” in a case where the calculated miR-16 value was higher than the miR-16 ratio of Comparative Example 8) | A (the concentration of microRNA is 50×10^−14M or more) | 
